In ChEMBL document CHEMBL1201862, “PubChem BioAssay data set” (2004):
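Each compound was tested at five concentrations against cells in 96-well plates for 48 hours. GI50 = concentration required for 50% inhibition of growth.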 Calls of active or inactive are those of the source. Rule as the data show it: active = GI50 up to about 1.1 µM and inactive = higher.

Assays:
Assay in all cases: DTP human tumour cell line panel, 48 h
COLO 205 = tested on: COLO 205
HT-29 = tested on: HT-29
A549 = tested on: A549
HCC 2998 = tested on: HCC 2998
HCT-116 = tested on: HCT-116
SK-MEL-2 = tested on: SK-MEL-2
SF-539 = tested on: SF-539
NCI-H460 = tested on: NCI-H460
NCI-H522 = tested on: NCI-H522
K562 = tested on: K562
SNB-19 = tested on: SNB-19
ACHN = tested on: ACHN
A498 = tested on: A498
OVCAR-4 = tested on: OVCAR-4
CAKI-1 = tested on: CAKI-1
OVCAR-3 = tested on: OVCAR-3
SK-MEL-5 = tested on: SK-MEL-5

Measured: GI50

C=C(C)C1C/C=C(/C)CCCC2(CCC3=C(CC(C(=C)C)C/C=C(/C)CCC3)O2)C(=O)C1 (configuration not stated)
inactive: COLO 205 > 100 µM | HT-29 > 100 µM | A549 > 100 µM | HCC 2998 > 100 µM | HCT-116 54.7 µM | SK-MEL-2 > 100 µM | SF-539 > 100 µM | NCI-H460 > 100 µM | NCI-H522 > 100 µM | K562 > 100 µM | SNB-19 > 100 µM | ACHN > 100 µM | A498 > 100 µM | OVCAR-4 > 100 µM

COc1cc(CCC(=O)NS(=O)(=O)c2ccccc2)cc(OC)c1OC
inactive: COLO 205 > 100 µM | HT-29 > 100 µM | A549 > 100 µM | HCC 2998 > 100 µM | HCT-116 > 100 µM | SK-MEL-2 > 100 µM | SF-539 > 100 µM | NCI-H460 > 100 µM | NCI-H522 > 100 µM | CAKI-1 > 100 µM | K562 > 100 µM | SNB-19 > 100 µM | ACHN > 100 µM | OVCAR-3 > 100 µM | A498 > 100 µM | OVCAR-4 > 100 µM

CC(=O)NNc1nc(C)c(C(/C=C/c2ccc(/C=C/C(=N\NC(=O)c3ccncc3)c3sc(NNC(C)=O)nc3C)cc2)=N/NC(=O)c2ccncc2)s1
inactive: COLO 205 > 100 µM | SK-MEL-5 > 100 µM | HT-29 > 100 µM | A549 > 100 µM | HCC 2998 > 100 µM | HCT-116 > 100 µM | SK-MEL-2 > 100 µM | SF-539 > 100 µM | NCI-H460 > 100 µM | CAKI-1 > 100 µM | K562 > 100 µM | SNB-19 > 100 µM | ACHN > 100 µM | OVCAR-3 > 100 µM | A498 > 100 µM

Cc1ccc(S(=O)(=O)N/N=C(\c2nc3ccc([N+](=O)[O-])cc3[nH]c2=O)C(O)c2ccc([N+](=O)[O-])cc2)cc1 (configuration not stated)
inactive: COLO 205 > 100 µM | SK-MEL-5 73.8 µM | A549 > 100 µM | HCC 2998 28.2 µM | SK-MEL-2 > 100 µM | SF-539 > 100 µM | NCI-H460 55.2 µM | NCI-H522 10.8 µM | CAKI-1 97.1 µM | K562 29.2 µM | SNB-19 > 100 µM | ACHN 35 µM | OVCAR-3 > 100 µM | A498 > 100 µM | OVCAR-4 68.9 µM

COC(=O)C1=C(C(=O)OC)N(C(C)C)[C@H]2C(C(=O)OC)=C(C(=O)OC)N(C(C)C)[C@@H]12
inactive: COLO 205 > 100 µM | SK-MEL-5 > 100 µM | HT-29 > 100 µM | A549 > 100 µM | HCT-116 > 100 µM | SK-MEL-2 > 100 µM | SF-539 > 100 µM | NCI-H460 > 100 µM | NCI-H522 > 100 µM | CAKI-1 > 100 µM | K562 > 100 µM | SNB-19 > 100 µM | ACHN > 100 µM | OVCAR-3 95.1 µM | A498 > 100 µM | OVCAR-4 > 100 µM

CS(=O)(=O)OCCN1CCN(C(=O)c2cccc3c(Nc4ccc(S(=O)(=O)N=C(N)N)cc4)c4ccccc4nc23)CC1
inactive: COLO 205 > 100 µM | SK-MEL-5 > 100 µM | HT-29 > 100 µM | A549 > 100 µM | HCC 2998 > 100 µM | HCT-116 > 100 µM | SK-MEL-2 > 10 µM | SF-539 > 100 µM | NCI-H460 > 100 µM | CAKI-1 > 100 µM | K562 > 100 µM | SNB-19 > 100 µM | ACHN > 100 µM | OVCAR-3 > 100 µM | A498 > 100 µM | OVCAR-4 > 100 µM

C/C(CC(=O)Nc1cccc([N+](=O)[O-])c1)=N/NC(N)=S
inactive: COLO 205 > 100 µM | SK-MEL-5 > 100 µM | HT-29 > 100 µM | A549 > 100 µM | HCC 2998 > 100 µM | HCT-116 > 100 µM | SK-MEL-2 > 100 µM | SF-539 > 100 µM | NCI-H460 > 100 µM | NCI-H522 > 100 µM | K562 > 100 µM | ACHN > 100 µM | OVCAR-3 > 100 µM

COC1=CC(=O)c2ccc(C(C)C)cc2C1(C)C1=NC(C)(C)CO1 (configuration not stated)
inactive: COLO 205 > 100 µM | SK-MEL-5 > 100 µM | HT-29 > 100 µM | A549 > 100 µM | HCT-116 > 100 µM | SK-MEL-2 > 100 µM | SF-539 > 100 µM | NCI-H460 > 100 µM | NCI-H522 77.4 µM | CAKI-1 > 100 µM | K562 76 µM | SNB-19 > 100 µM | ACHN > 100 µM | OVCAR-3 > 100 µM | OVCAR-4 > 100 µM

Clc1cc(Cl)cc(Nc2nc3ccccc3nc2-c2cccs2)c1
inactive: COLO 205 7.23 µM | HT-29 14 µM | A549 38.5 µM | HCC 2998 99.3 µM | HCT-116 18.5 µM | SK-MEL-2 > 100 µM | SF-539 36.1 µM | NCI-H460 14.3 µM | SNB-19 > 10 µM | ACHN 19.4 µM | OVCAR-3 29.1 µM

O=C1c2ccccc2C(=O)c2cc3c(cc21)C[S+]([O-])C3
inactive: COLO 205 > 100 µM | SK-MEL-5 > 100 µM | HT-29 > 100 µM | A549 > 100 µM | HCC 2998 > 100 µM | SK-MEL-2 > 100 µM | SF-539 > 100 µM | NCI-H460 > 100 µM | NCI-H522 > 100 µM | CAKI-1 > 100 µM | K562 > 100 µM | SNB-19 > 100 µM | ACHN > 100 µM | OVCAR-3 > 100 µM | OVCAR-4 > 100 µM

O=C(O)CN(c1ccccc1)S(=O)(=O)c1ccc([N+](=O)[O-])cc1
inactive: COLO 205 > 100 µM | SK-MEL-5 > 100 µM | HT-29 > 100 µM | A549 > 100 µM | SK-MEL-2 > 100 µM | SF-539 > 100 µM | NCI-H460 > 100 µM | NCI-H522 > 100 µM | CAKI-1 > 100 µM | K562 > 100 µM | SNB-19 > 100 µM | ACHN > 100 µM | OVCAR-3 > 100 µM | A498 > 100 µM | OVCAR-4 > 100 µM

CCOc1ccccc1N1C(=O)C(=O)C(c2nc3ccccc3o2)C(=O)C1=O
inactive: COLO 205 > 100 µM | SK-MEL-5 > 100 µM | HT-29 > 100 µM | A549 48.6 µM | HCC 2998 > 100 µM | HCT-116 70.5 µM | SK-MEL-2 > 100 µM | SF-539 > 100 µM | NCI-H522 > 100 µM | CAKI-1 66.8 µM | K562 > 100 µM | SNB-19 > 100 µM | ACHN 28.3 µM | OVCAR-3 > 100 µM | A498 48.6 µM | OVCAR-4 15.7 µM

CSCCC(C(=O)O)N(CC1(O)OCC(O)C(O)C1O)N=O (configuration not stated)
inactive: COLO 205 > 100 µM | SK-MEL-5 > 100 µM | HT-29 > 100 µM | A549 > 100 µM | HCC 2998 > 100 µM | HCT-116 > 100 µM | SK-MEL-2 > 100 µM | SF-539 > 100 µM | NCI-H460 > 100 µM | NCI-H522 > 100 µM | K562 > 100 µM | ACHN > 100 µM | OVCAR-3 > 100 µM | A498 > 100 µM

O=C(NC12CC3CC(CC(C3)C1)C2)C(=O)c1c[nH]c2ccc(Cl)cc12
inactive: COLO 205 81.8 µM | SK-MEL-5 42.2 µM | HT-29 3.97 µM | A549 > 100 µM | HCC 2998 32.9 µM | HCT-116 30.1 µM | SK-MEL-2 26.7 µM | SF-539 16.5 µM | NCI-H460 22.2 µM | NCI-H522 85.5 µM | K562 3.8 µM | SNB-19 26.8 µM | ACHN 33.3 µM | OVCAR-3 13.8 µM | OVCAR-4 21.2 µM

CN1N=C2c3ccccc3OC(c3ccccc3)[C@H]2C1c1ccccc1 (some centres not stated)
inactive: COLO 205 > 100 µM | HT-29 42.1 µM | A549 72.9 µM | HCC 2998 56.1 µM | HCT-116 29.7 µM | SK-MEL-2 > 100 µM | SF-539 > 100 µM | NCI-H460 97.1 µM | NCI-H522 22.5 µM | K562 88.1 µM | SNB-19 > 100 µM | ACHN > 100 µM | OVCAR-3 > 100 µM | A498 > 100 µM | OVCAR-4 85.1 µM

FC(F)(F)c1ccc2nc(Nc3ccc(Cl)c(Cl)c3)c(-c3ccccc3)nc2c1
inactive: COLO 205 61.8 µM | HT-29 26 µM | A549 17.1 µM | HCC 2998 86.7 µM | HCT-116 7.66 µM | SK-MEL-2 > 100 µM | SF-539 19.4 µM | NCI-H460 7.05 µM | SNB-19 74 µM | ACHN 40.3 µM | OVCAR-3 37.5 µM

CCCCCCCC(=O)NCC(O)CNC(=O)CCCCCCC
inactive: COLO 205 > 100 µM | SK-MEL-5 > 100 µM | HT-29 > 100 µM | A549 > 100 µM | HCC 2998 > 100 µM | HCT-116 > 100 µM | SF-539 > 100 µM | NCI-H460 > 100 µM | NCI-H522 > 100 µM | CAKI-1 > 100 µM | K562 > 100 µM | SNB-19 > 100 µM | OVCAR-3 > 100 µM | A498 > 100 µM | OVCAR-4 > 100 µM

CCN(CC)CCCNc1nccc2c(C)c3c(cc12)c1cnccc1n3C
inactive: A498 1.18 µM
active: COLO 205 0.249 µM | SK-MEL-5 0.431 µM | HT-29 0.0101 µM | A549 0.0526 µM | HCC 2998 0.0401 µM | HCT-116 0.0564 µM | SF-539 0.0173 µM | NCI-H460 0.0111 µM | CAKI-1 0.144 µM | K562 0.0211 µM | SNB-19 0.288 µM | ACHN 0.353 µM | OVCAR-3 0.237 µM | OVCAR-4 0.0282 µM
